From patent US6465615B1 (AstraZeneca AB, priority 2001, dated 2002)
“Also recorded” adds a separate entry of the source.

Columns and labels:
[1] = Stability / hygroscopicity at ambient room temperature and humidity; assay type: physicochemical; conditions: for stability at standard room temperature and humidity (ambient conditions): Preparation 3 after about 5 hours standing, TGA
Description: The partially dehydrated material was allowed to stand for about 5 hours.

[2] = physchem
[3] = Solubility measured visually; conditions: relative to crystalline lisinopril dihydrate (Zestril)
[4] = cited from earlier work

What does the source list for `NCCCC[C@H](N[C@@H](CCc1ccccc1)C(=O)O)C(=O)N1CCC[C@H]1C(=O)O` [monohydrate lisinopril form 2, 1-(N^2-[(S)-1-carboxy-3-phenylpropyl]-L-lysyl)-L-proline]?
stability at standard room temperature and humidity (ambient conditions) [1]: stable; solubility [2]: 400 to 450 mg/mL; solubility compared with lisinopril dihydrate [3]: far greater solubility; also recorded: much more soluble; also recorded: substantially more soluble

For `NCCCC[C@H](N[C@@H](CCc1ccccc1)C(=O)O)C(=O)N1CCC[C@H]1C(=O)O.O` [monohydrate lisinopril form 1], which “stability at standard room temperature and humidity (ambient conditions)” value ([1]; listed as form 1) is on record?
The value was “stable”.

Which “stability at standard room temperature and humidity (ambient conditions)” value [1] does the source give for `NCCCC[C@H](N[C@@H](CCc1ccccc1)C(=O)O)C(=O)N1CCC[C@H]1C(=O)O.O` [Preparation 3] here?
The value was “not a stable monohydrate”.

And the hygroscopicity ([1]; crystals returned to room temperature after heating, evolved water reabsorbed from atmosphere)?
The hygroscopicity was “strongly hygroscopic”.

For `NCCCC[C@H](N[C@@H](CCc1ccccc1)C(=O)O)C(=O)N1CCC[C@H]1C(=O)O` [lisinopril], which “time to peak serum concentrations” value ([4]; following oral administration) is on record?
The value was ≤ 7 h.

What about the “effective half-life of accumulation” value ([4]; multiple dosing) of the same molecule?
The value was “about 12.6 hours”.
